Reference: article PMC4728661, “Cancer Prevention and Health Benefices of Traditionally Consumed Borago officinalis Plants” (Nutrients, 2016)
Marks after values point to notes of the source that are not given here.

What was measured:
HL-60 cells = assay: Cytotoxicity: HL-60 growth/viability, Trypan Blue dye exclusion; format: cell-based, human; settings: 0.03–1 mM, 72 h
Experimental: The human acute promyelocytic leukemia cell line HL-60 was routinely grown in suspension in RPMI medium (Invitrogen, Madrid, Spain) containing glutamine ([…], Sigma-Aldrich, St. Louis, MO, USA), antibiotics (100IU penicillin mL^−1 and 100 μg streptomycin mL^−1, Sigma-Aldrich) and supplemented with 10% heat-inactivated foetal bovine serum (Linus, Cultek, Madrid, Spain) and placed in an incubator (Shel Lab, Cornelious, OR, USA) with a 5% CO2 humidified atmosphere at 37 °C [36]. HL-60 cells were subcultured every 2–3 days to maintain logarithmic growth and they were allowed to grow for 48 h before use. Cultures were plated at a density of 12.5 × 10^4 cells mL^−1 in 40 mL culture flasks (25 cm^2). Cytotoxic activity was measured as growing inhibition or decreased viability on HL-60 cells following a previous protocol modified by us. […] Cells were counted after 72 h treatment. Tested concentrations were calculated according to those used for in vivo assays to equal the range of tested doses. Untreated cultures were used as negative control. Cell viability was determined by the Trypan Blue dye exclusion test. Cells were stained with an equal volume of Trypan Blue commercial solution (Sigma-Aldrich) and counted using a hemocytometer at room temperature under a light inverted microscope (AE30/31, Motic, Barcelona, Spain). Cytotoxic effect evaluation was determined after each culture incubation period, establishing a growth curve and determining IC50 values by regression analysis of the curves. Viability estimated regressions of leukemia cells are presented as a survival percentage with respect to controls at 72 h growth and plotted as mean viability ± standard error of at least three independent replicas for each treatment and concentration.

D. melanogaster [1] = assay: Antigenotoxicity: SMART, combined treatments with H2O2 0.12 M; format: in vivo, Drosophila melanogaster; for Diagnosis, Small Single Spots 1–2 Cells m = 2: key: + (positive); − (negative); for Diagnosis, Total Spots m = 2: key: + (positive); − (negative)
Experimental: The D. melanogaster system was selected for the determination of the safety of B. officinalis consumption as a well-recognized method to analyze vegetable complex mixtures using SMART [31, 32]. This test was used in order to evaluate the genotoxic and antigenotoxic activity of B. officinalis leaves and petioles as well as their selected bioactive compounds [33]. This activity was measured by direct visualization of the occurrence of recessive mutations in the wing hairs of two different D. melanogaster strains. Flies from experiments carried these visible wing genetic markers: the flare (flr) strain […]) TM3, Bd^s and the multiple wing-hair (mwh) strain […] [35]. The marker flare (flr^3, 3_38.3) produces individual malformed hairs and the marker multiple wing hairs (mwh, 3_0.3) produces multiple hairs per cell. Larvae used in treatments come from two types of crosses: the standard cross with flr^3/TM3, Bd^S females mated to […] and the reciprocal cross. Optimal fertile flies were anesthetized under CO2 narcotisation for cross selection and then placed in new vials for fertilization. After that, hybrid eggs from crossing were collected over an 8 h period and emerged larvae (72 ± 4 h later) were cleaned up for a few seconds in sterile distilled water to remove feeding medium rests. […] Bioactive compound concentrations were chosen on the basis of their known content in B. officinalis species. […] Larvae were fed on these media until pupation (about 48 h). After emergence, resulting adult flies were sacrificed under CO2 narcotisation and stored in a 70% ethanol solution in sterile water. […] For the evaluation of genotoxic effects, the frequencies of spots per fly of each treated series were compared to the concurrent negative control for each class of mutational clone as well as between simple and combined treatments for the same concentration comparisons. […] A multiple-decision procedure was used to categorize results as positive, inconclusive or negative. Inconclusive and positive results were evaluated by the non-parametric U test of Mann, Whitney and Wilcoxon. The inhibition percentage (IP) of genotoxicity was calculated from the total frequencies of spots per wing, following this formula [42]: IP = (genotoxin alone - sample + genotoxin) × 100/(genotoxin alone)(2) Significant differences of IP for each treatment respect to the positive control were analyzed with a Chi-square test.

D. melanogaster [2] = assay: Toxicity: survival of Drosophila larvae to emerged adults, simple and combined (H2O2) treatments; format: in vivo, Drosophila melanogaster
Experimental: Optimal fertile flies were anesthetized under CO2 narcotisation for cross selection and then placed in new vials for fertilization. After that, hybrid eggs from crossing were collected over an 8 h period and emerged larvae (72 ± 4 h later) were cleaned up for a few seconds in sterile distilled water to remove feeding medium rests. […] Bioactive compound concentrations were chosen on the basis of their known content in B. officinalis species. […] Larvae were fed on these media until pupation (about 48 h). After emergence, resulting adult flies were sacrificed under CO2 narcotisation and stored in a 70% ethanol solution in sterile water. […] The determination of Toxicity (T) of treatments in D. melanogaster was performed following this formula [39]: T = (N° of emerging individuals in treatment/N° of emerging individuals in the negative control) × 100(1) Differences in D. melanogaster survival between treatments at each concentration with respect to negative control were analyzed with a Chi-square test. This procedure was also performed for the analysis of each simple treatment with their correspondent combined treatment.

[3] = combined with 0.12 M H2O2, 0.16 mM SY
[4] = combined with 0.12 M H2O2, 0.32 mM SY
[5] = combined with 0.12 M H2O2, 0.63 mM SY
[6] = combined with 0.12 M H2O2, 1.26 mM SY

**Q.** Which “Effect on HL-60 growth” value (HL-60 cells) does the source give for `COc1cc(C(=O)O)cc(OC)c1O` [SY, syringic acid] here?
**A.** did not affect HL-60 growth

**Q.** What about the “Diagnosis, Small Single Spots 1–2 Cells m = 2” value (D. melanogaster [1]; [3]) of the same compound?
**A.** −

**Q.** What about the “Diagnosis, Total Spots m = 2” value (D. melanogaster [1]; [3]) of the same compound?
**A.** −

**Q.** What about the “Mutation rate, Large Single Spots >2 Cells m = 5” value (D. melanogaster [1]; [3]) of the same compound?
**A.** 0 spots/wing

**Q.** What about the “Mutation rate, Small Single Spots 1–2 Cells m = 2” value (D. melanogaster [1]; [3]) of the same compound?
**A.** 0.23 (5) spots/wing

**Q.** What about the “Mutation rate, Total Spots m = 2” value (D. melanogaster [1]; [3]) of the same compound?
**A.** 0.23 (5) spots/wing

**Q.** What about the “Mutation rate, Twin Spots m = 5” value (D. melanogaster [1]; [3]) of the same compound?
**A.** 0 spots/wing

**Q.** And the “Diagnosis, Small Single Spots 1–2 Cells m = 2” value (D. melanogaster [1]; [4])?
**A.** −

**Q.** And the “Diagnosis, Total Spots m = 2” value (D. melanogaster [1]; [4])?
**A.** −

**Q.** And the “Mutation rate, Large Single Spots >2 Cells m = 5” value (D. melanogaster [1]; [4])?
**A.** 0 spots/wing

**Q.** And the “Mutation rate, Small Single Spots 1–2 Cells m = 2” value (D. melanogaster [1]; [4])?
**A.** 0.30 (3) spots/wing

**Q.** What about the “Mutation rate, Total Spots m = 2” value (D. melanogaster [1]; [4]) of the same compound?
**A.** 0.30 (3) spots/wing

**Q.** What about the “Mutation rate, Twin Spots m = 5” value (D. melanogaster [1]; [4]) of the same compound?
**A.** 0 spots/wing

**Q.** What about the “Diagnosis, Small Single Spots 1–2 Cells m = 2” value (D. melanogaster [1]; [5]) of the same compound?
**A.** −

**Q.** What about the “Diagnosis, Total Spots m = 2” value (D. melanogaster [1]; [5]) of the same compound?
**A.** −

**Q.** And the “Mutation rate, Large Single Spots >2 Cells m = 5” value (D. melanogaster [1]; [5])?
**A.** 0 spots/wing

**Q.** And the “Mutation rate, Small Single Spots 1–2 Cells m = 2” value (D. melanogaster [1]; [5])?
**A.** 0.28 (9) spots/wing

**Q.** And the “Mutation rate, Total Spots m = 2” value (D. melanogaster [1]; [5])?
**A.** 0.28 (9) spots/wing

**Q.** What about the “Mutation rate, Twin Spots m = 5” value (D. melanogaster [1]; [5]) of the same compound?
**A.** 0 spots/wing

**Q.** And the “Diagnosis, Small Single Spots 1–2 Cells m = 2” value (D. melanogaster [1]; [6])?
**A.** −

**Q.** What about the “Diagnosis, Total Spots m = 2” value (D. melanogaster [1]; [6]) of the same compound?
**A.** −

**Q.** What about the “Mutation rate, Large Single Spots >2 Cells m = 5” value (D. melanogaster [1]; [6]) of the same compound?
**A.** 0 spots/wing

**Q.** And the “Mutation rate, Small Single Spots 1–2 Cells m = 2” value (D. melanogaster [1]; [6])?
**A.** 0.32 (7) spots/wing

**Q.** What about the “Mutation rate, Total Spots m = 2” value (D. melanogaster [1]; [6]) of the same compound?
**A.** 0.32 (7) spots/wing

**Q.** And the “Mutation rate, Twin Spots m = 5” value (D. melanogaster [1]; [6])?
**A.** 0 spots/wing

**Q.** And the Survival (D. melanogaster [2]; [3])?
**A.** 31.11 *^,‡ %

**Q.** And the Survival (D. melanogaster [2]; [4])?
**A.** 29.33 *^,‡ %

**Q.** And the Survival (D. melanogaster [2]; [5])?
**A.** 20.44 *^,‡ %

**Q.** What about the Survival (D. melanogaster [2]; [6]) of the same compound?
**A.** 36.89 *^,‡ %

**Q.** And the Survival (D. melanogaster [2]; simple treatment, 0.16 mM SY)?
**A.** 39.78 * %

**Q.** And the Survival (D. melanogaster [2]; simple treatment, 0.32 mM SY)?
**A.** 42.67 * %

**Q.** And the Survival (D. melanogaster [2]; simple treatment, 0.63 mM SY)?
**A.** 31.11 * %

**Q.** What about the Survival (D. melanogaster [2]; simple treatment, 1.26 mM SY) of the same compound?
**A.** 58.22 * %
